Laboratory results from paper doi:10.1101/2023.10.20.563248v1 (biorxiv, 2023).

What was measured:
Details in all cases: 1 µM; inhibitor
[1] = target: ABL2 (Homo sapiens, UniProt P42684)
[2] = target: ACVRL1 (Homo sapiens, UniProt P37023)
[3] = target: AurC (Homo sapiens, UniProt Q9UQB9)
[4] = target: CAMK4 (Homo sapiens, UniProt Q16566)
[5] = target: CDK11B (Homo sapiens, UniProt P21127)
[6] = target: CDK20/CycT1 (Homo sapiens, UniProt Q8IZL9)
[7] = target: CDK5/p35NCK (Homo sapiens, UniProt Q00535)
[8] = target: CK1a (Homo sapiens, UniProt P48729)
Chain of CK1a (P48729 whole entry): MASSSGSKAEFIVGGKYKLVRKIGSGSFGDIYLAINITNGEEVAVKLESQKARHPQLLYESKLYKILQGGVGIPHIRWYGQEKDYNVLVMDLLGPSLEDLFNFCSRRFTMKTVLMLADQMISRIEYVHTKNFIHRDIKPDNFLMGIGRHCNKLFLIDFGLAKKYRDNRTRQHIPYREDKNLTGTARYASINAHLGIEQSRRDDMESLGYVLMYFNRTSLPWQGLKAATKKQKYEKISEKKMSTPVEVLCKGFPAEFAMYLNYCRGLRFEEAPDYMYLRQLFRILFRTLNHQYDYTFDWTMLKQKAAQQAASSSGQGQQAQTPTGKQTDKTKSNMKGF

[9] = target: EPHB4 (Homo sapiens, UniProt P54760)
[10] = target: FAK (Homo sapiens, UniProt Q05397)
[11] = target: FLT4 (Homo sapiens, UniProt P35916)
Chain of FLT4 (P35916 whole entry): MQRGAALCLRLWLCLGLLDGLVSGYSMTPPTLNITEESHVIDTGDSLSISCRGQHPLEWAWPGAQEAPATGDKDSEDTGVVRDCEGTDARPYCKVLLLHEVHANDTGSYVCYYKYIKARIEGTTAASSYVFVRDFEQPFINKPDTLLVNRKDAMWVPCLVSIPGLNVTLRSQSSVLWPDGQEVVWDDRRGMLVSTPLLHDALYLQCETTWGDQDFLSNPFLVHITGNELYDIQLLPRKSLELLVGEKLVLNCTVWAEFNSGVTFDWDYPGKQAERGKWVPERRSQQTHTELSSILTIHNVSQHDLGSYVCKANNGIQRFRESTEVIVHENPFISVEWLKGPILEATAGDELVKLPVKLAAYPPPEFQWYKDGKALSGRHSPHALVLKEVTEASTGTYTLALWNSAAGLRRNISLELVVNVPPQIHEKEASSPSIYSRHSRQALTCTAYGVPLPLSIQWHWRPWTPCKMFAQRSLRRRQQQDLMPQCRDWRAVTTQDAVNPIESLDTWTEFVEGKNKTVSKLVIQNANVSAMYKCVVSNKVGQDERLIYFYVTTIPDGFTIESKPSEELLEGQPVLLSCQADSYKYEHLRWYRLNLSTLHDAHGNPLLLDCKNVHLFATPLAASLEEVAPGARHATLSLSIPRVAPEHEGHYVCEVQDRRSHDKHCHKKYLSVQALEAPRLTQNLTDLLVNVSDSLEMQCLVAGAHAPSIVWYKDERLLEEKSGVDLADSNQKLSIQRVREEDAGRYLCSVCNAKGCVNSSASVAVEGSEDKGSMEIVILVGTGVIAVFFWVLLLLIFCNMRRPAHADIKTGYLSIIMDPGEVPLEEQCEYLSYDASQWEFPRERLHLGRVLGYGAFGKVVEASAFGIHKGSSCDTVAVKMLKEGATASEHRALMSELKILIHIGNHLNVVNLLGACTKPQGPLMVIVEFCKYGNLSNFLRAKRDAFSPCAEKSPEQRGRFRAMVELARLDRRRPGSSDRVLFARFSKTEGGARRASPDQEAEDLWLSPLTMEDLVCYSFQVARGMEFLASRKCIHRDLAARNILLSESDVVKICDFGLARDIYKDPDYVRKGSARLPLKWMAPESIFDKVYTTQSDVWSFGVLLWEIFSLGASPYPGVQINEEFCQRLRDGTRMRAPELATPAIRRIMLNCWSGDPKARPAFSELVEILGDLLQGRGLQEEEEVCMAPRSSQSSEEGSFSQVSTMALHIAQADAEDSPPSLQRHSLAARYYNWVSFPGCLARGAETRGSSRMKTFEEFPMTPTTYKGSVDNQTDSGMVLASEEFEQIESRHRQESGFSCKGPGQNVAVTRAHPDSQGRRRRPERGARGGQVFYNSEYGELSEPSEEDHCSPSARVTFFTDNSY

[12] = target: GSG2 (Homo sapiens, UniProt Q8TF76)
[13] = target: IGF1R (Homo sapiens, UniProt P08069)
[14] = target: LKB1/MO25a/STRADa (Homo sapiens, UniProt Q15831)
Chain of LKB1/MO25a/STRADa (Q15831 whole entry): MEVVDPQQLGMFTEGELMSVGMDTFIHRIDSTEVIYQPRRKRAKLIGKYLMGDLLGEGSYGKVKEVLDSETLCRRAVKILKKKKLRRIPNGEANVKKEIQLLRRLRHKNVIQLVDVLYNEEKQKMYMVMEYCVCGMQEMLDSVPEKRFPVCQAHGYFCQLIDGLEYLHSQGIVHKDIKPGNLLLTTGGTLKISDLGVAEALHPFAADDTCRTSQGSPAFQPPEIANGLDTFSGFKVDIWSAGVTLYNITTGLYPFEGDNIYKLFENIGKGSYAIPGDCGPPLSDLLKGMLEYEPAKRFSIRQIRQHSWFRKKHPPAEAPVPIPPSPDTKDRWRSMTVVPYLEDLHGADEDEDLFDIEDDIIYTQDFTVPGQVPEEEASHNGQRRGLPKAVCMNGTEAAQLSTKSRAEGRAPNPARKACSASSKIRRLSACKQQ
Chain of LKB1/MO25a/STRADa (Q7RTN6 whole entry partner): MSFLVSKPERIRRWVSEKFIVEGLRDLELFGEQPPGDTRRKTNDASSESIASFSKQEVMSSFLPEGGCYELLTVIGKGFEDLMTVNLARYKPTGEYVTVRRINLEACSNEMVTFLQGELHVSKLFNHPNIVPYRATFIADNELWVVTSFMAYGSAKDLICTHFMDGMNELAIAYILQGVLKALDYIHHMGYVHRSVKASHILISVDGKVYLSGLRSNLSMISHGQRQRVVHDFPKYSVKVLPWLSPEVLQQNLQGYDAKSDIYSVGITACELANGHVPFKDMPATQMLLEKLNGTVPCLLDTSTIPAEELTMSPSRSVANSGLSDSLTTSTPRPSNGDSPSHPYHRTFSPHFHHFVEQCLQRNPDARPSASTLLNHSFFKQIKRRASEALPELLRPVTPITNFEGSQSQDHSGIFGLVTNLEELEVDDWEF
Chain of LKB1/MO25a/STRADa (Q9Y376 whole entry partner): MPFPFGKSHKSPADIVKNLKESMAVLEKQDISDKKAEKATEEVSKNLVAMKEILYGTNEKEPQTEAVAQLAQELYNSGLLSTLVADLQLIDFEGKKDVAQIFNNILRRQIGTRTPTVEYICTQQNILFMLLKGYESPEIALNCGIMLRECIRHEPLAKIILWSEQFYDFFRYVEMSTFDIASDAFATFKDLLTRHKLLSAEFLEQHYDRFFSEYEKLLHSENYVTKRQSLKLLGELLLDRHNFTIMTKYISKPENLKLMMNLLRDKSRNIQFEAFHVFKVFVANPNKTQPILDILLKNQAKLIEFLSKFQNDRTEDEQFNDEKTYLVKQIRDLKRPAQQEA

[15] = target: MAP4K2 (Homo sapiens, UniProt Q12851)
[16] = target: NEK11 (Homo sapiens, UniProt Q8NG66)
[17] = target: NEK6 (Homo sapiens, UniProt Q9HC98)
[18] = target: NEK9 (Homo sapiens, UniProt Q8TD19)
[19] = target: PASK (Homo sapiens, UniProt Q96RG2)
[20] = target: PBK (Homo sapiens, UniProt Q96KB5)
Chain of PBK (Q96KB5 whole entry): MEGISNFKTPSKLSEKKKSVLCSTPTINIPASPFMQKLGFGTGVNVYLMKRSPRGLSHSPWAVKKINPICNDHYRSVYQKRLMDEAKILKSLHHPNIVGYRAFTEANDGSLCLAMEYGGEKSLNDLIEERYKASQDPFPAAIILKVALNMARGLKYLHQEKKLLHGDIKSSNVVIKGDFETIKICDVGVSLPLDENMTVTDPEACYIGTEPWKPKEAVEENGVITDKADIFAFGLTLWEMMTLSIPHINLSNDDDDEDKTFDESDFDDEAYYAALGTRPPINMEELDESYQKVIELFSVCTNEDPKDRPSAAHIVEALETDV

[21] = target: PDGFRa (Homo sapiens, UniProt P16234)
[22] = target: PDK1 (Homo sapiens, UniProt O15530)
[23] = target: PKCe (Homo sapiens, UniProt Q02156)
[24] = target: PKCg (Homo sapiens, UniProt P05129)
[25] = target: PKCt (Homo sapiens, UniProt Q04759)
[26] = target: RPS6KA5 (Homo sapiens, UniProt O75582)
[27] = target: SIK1 (Homo sapiens, UniProt P57059)
[28] = target: TIE2 (Homo sapiens, UniProt Q02763)
[29] = target: ULK2 (Homo sapiens, UniProt Q8IYT8)
Chain of ULK2 (Q8IYT8 whole entry): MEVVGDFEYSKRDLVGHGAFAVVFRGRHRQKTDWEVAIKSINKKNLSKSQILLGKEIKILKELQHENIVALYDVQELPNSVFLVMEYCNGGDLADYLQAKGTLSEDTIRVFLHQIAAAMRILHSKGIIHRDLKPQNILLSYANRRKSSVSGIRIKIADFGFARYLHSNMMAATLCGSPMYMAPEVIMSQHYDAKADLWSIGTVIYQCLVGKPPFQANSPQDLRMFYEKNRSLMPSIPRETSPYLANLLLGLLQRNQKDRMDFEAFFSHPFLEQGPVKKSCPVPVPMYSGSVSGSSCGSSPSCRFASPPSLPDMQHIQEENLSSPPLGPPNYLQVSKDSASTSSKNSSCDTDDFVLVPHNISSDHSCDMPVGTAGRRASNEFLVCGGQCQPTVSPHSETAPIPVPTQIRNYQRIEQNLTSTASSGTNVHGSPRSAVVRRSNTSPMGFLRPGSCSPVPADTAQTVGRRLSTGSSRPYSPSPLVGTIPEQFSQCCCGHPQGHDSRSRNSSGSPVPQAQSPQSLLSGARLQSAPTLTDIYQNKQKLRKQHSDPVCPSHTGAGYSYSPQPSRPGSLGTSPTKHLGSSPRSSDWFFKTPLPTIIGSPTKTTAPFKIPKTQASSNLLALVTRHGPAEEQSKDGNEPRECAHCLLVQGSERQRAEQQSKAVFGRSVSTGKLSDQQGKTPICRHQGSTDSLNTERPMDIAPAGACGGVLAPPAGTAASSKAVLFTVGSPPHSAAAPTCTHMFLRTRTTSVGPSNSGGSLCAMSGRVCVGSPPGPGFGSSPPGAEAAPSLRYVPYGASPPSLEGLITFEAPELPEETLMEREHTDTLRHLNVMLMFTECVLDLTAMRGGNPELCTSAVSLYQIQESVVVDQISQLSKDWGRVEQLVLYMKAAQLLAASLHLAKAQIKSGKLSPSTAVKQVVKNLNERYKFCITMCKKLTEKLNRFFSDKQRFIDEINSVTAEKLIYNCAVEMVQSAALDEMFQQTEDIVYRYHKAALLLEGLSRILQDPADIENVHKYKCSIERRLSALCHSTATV

[30] = target: WEE1 (Homo sapiens, UniProt P30291)
[31] = target: ZAP70 (Homo sapiens, UniProt P43403)

O=C1NCCCCCNc2nc(c3ccccc3n2)Nc2cc1[nH]n2 [21c, (Z)-3^1H-2,5,11-triaza-1(4,2)-quinazolina-3(3,5)-pyrazolacycloundecaphan-4-one]
21c Remaining activity, percent of control [%] [1]: 84.2%
21c Remaining activity, percent of control [%] [2]: 91.0%
21c Remaining activity, percent of control [%] [3]: 90.2%
21c Remaining activity, percent of control [%] [4]: 98.0%
21c Remaining activity, percent of control [%] [5]: 91.2%
21c Remaining activity, percent of control [%] [6]: 89.1%
21c Remaining activity, percent of control [%] [7]: 96.6%
21c Remaining activity, percent of control [%] [8]: 102.0%
21c Remaining activity, percent of control [%] [9]: 86.1%
21c Remaining activity, percent of control [%] [10]: 91.4%
21c Remaining activity, percent of control [%] [11]: 93.9%
21c Remaining activity, percent of control [%] [12]: 108.1%
21c Remaining activity, percent of control [%] [13]: 102.9%
21c Remaining activity, percent of control [%] [14]: 105.1%
21c Remaining activity, percent of control [%] [15]: 112.8%
21c Remaining activity, percent of control [%] [16]: 93.3%
21c Remaining activity, percent of control [%] [17]: 89.5%
21c Remaining activity, percent of control [%] [18]: 109.8%
21c Remaining activity, percent of control [%] [19]: 100.8%
21c Remaining activity, percent of control [%] [20]: 98.8%
21c Remaining activity, percent of control [%] [21]: 102.0%
21c Remaining activity, percent of control [%] [22]: 99.5%
21c Remaining activity, percent of control [%] [23]: 86.5%
21c Remaining activity, percent of control [%] [24]: 79.4%
21c Remaining activity, percent of control [%] [25]: 42.6%
21c Remaining activity, percent of control [%] [26]: 108.9%
21c Remaining activity, percent of control [%] [27]: 86.3%
21c Remaining activity, percent of control [%] [28]: 116.9%
21c Remaining activity, percent of control [%] [29]: 96.0%
21c Remaining activity, percent of control [%] [30]: 88.0%
21c Remaining activity, percent of control [%] [31]: 108.6%
